Source: ChEMBL document CHEMBL1141062, “Synthesis and evaluation of tricyclic pyrrolopyrimidinones as dipeptide mimetics: inhibition of interleukin-1beta-converting enzyme” (Bioorg Med Chem Lett, 2005)

Legend:
Caspase-3 = biological target: T1, Caspase-3 (Homo sapiens, UniProt P42574); assay: Inhibitory activity towards CASP3 using fluorogenic substrates following an incubation for over 30 min at 37 degree C
T1 sequence (P42574 whole entry): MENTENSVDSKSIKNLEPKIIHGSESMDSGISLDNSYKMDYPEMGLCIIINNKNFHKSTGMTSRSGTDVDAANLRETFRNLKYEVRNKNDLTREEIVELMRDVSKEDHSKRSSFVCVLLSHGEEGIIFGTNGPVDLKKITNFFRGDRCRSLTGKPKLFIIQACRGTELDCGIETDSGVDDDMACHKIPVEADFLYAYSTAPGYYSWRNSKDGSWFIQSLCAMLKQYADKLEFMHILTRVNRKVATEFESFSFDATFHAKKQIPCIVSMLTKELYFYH

THP-1 = assay: Inhibitory concentration against IL-1b production in THP-1 cells; assay type: functional, cell-based; settings: Homo sapiens
Caspase-1 = biological target: T2, Caspase-1 (Homo sapiens, UniProt P29466); assay: Inhibitory activity towards CASP1 using fluorogenic substrates following an incubation for over 30 min at 37 degree C
T2 sequence (P29466 whole entry): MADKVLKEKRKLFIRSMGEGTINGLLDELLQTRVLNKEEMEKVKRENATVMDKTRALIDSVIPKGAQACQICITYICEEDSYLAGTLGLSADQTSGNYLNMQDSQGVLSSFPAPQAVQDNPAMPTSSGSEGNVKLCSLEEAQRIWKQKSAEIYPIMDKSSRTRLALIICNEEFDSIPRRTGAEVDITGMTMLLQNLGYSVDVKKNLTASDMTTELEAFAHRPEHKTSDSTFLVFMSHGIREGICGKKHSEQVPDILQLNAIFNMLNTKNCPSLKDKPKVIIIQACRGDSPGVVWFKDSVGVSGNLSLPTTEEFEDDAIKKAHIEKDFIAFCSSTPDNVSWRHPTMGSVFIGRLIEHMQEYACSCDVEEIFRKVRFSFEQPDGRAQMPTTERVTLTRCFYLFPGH

Caspase-8 = Caspase-8 (Homo sapiens, UniProt Q14790); assay: Inhibitory activity towards CASP8 using fluorogenic substrates following an incubation for over 30 min at 37 degree C
Sequence of Caspase-8 (Q14790 217-374 limits assumed): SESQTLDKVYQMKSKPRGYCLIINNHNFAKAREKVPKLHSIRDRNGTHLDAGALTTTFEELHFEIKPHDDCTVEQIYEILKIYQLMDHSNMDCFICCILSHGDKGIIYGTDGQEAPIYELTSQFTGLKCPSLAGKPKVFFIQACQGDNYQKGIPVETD
Sequence of Caspase-8 (Q14790 385-479 limits assumed): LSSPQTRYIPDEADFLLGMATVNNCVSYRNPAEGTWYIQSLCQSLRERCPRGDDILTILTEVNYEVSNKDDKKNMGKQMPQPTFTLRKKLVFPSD

IC50 (Caspase-3)	IC50 (THP-1)	IC50 (Caspase-1)	IC50 (Caspase-8)	SMILES
1840 nM	252 nM	14 nM	336 nM	O=C1C[C@H](NC(=O)[C@@H]2CCc3nc4cc(-c5ccccc5Cl)nc-4c(O)n32)C(O)O1 (some centres undefined)
4390 nM	529 nM	55 nM	1820 nM	O=C1C[C@H](NC(=O)[C@@H]2CCc3nc4cc(-c5cccc(Cl)c5)nc-4c(O)n32)C(O)O1 (some centres undefined)
10000 nM	1060 nM	264 nM	3050 nM	O=C1C[C@H](NC(=O)[C@@H]2CCc3nc4cc(-c5ccccc5)nc-4c(O)n32)C(O)O1 (some centres undefined)
10000 nM	830 nM	97 nM	4810 nM	O=C1C[C@H](NC(=O)[C@@H]2CCc3nc4cc(-c5ccc(Cl)cc5)nc-4c(O)n32)C(O)O1 (some centres undefined)
10000 nM	10000 nM	4580 nM	10000 nM	O=C1C[C@H](NC(=O)[C@@H]2CCc3nc4ccccc4c(=O)n32)C(O)O1 (some centres undefined)
2290 nM	975 nM	421 nM	7540 nM	CC(C)(C)c1cc2nc3n(c(O)c-2n1)[C@H](C(=O)N[C@H]1CC(=O)OC1O)CC3 (some centres undefined)
